Results taken from patent publication US20240226107A1, “UBIQUITIN-SPECIFIC PROTEASE 1 (USP1) INHIBITOR” (SIMCERE ZAIMING PHARMACEUTICAL CO., LTD., priority 2021, published 2024).
In brackets after ≈: the same amount, converted by molar mass.

Assays:
CYP3A4 = CYP3A4 (Homo sapiens (Human), UniProt P08684); assay: CYP enzyme inhibition in pooled human liver microsomes (midazolam); format: in vitro ADME
Protocol: (§1) Typical substrate metabolic responses of five major human CYP subtypes (CYP1A2, CYP2C9, CYP2C19, CYP2D6, CYP3A4) were evaluated using 150-donor pooled human liver microsomes (purchased from Corning, Cat. No.: 452117). The influence of different concentrations of each compound to be tested on metabolic responses of phenacetin (CYP1A2), diclofenac sodium (CYP2C9), S-mephenytoin (CYP2C19), bufuralol hydrochloride (CYP2D6), and midazolam (CYP3A4) was determined by liquid chromatography-mass spectrometry (LC/MS/MS). […] Then 200 μL of acetonitrile solution containing 3% formic acid and 40 nM internal standard verapamil was added and centrifuged at 4000 rpm for 50 min. The mixture was cooled on ice for 20 min and centrifuged at 4000 rpm for 20 min to precipitate the protein. Then 200 μL of supernatant was analyzed by LC-MS/MS. The peak area was calculated from the chromatogram. The residual activity ratio (%) was calculated according to the following equation: Peak area ratio=metabolite peak area/internal standard peak area Residual activity ratio (%)=peak area ratio of compounds-to-be-tested group/peak area ratio of blank group The half inhibitory concentration (IC50) for CYP was calculated by Excel XLfit 5.3.1.3.

CYP2C9 = CYP2C9 (Homo sapiens (Human), UniProt P11712); assay: CYP enzyme inhibition in pooled human liver microsomes (diclofenac sodium); format: in vitro ADME
Sequence of CYP2C9 (P11712 whole entry): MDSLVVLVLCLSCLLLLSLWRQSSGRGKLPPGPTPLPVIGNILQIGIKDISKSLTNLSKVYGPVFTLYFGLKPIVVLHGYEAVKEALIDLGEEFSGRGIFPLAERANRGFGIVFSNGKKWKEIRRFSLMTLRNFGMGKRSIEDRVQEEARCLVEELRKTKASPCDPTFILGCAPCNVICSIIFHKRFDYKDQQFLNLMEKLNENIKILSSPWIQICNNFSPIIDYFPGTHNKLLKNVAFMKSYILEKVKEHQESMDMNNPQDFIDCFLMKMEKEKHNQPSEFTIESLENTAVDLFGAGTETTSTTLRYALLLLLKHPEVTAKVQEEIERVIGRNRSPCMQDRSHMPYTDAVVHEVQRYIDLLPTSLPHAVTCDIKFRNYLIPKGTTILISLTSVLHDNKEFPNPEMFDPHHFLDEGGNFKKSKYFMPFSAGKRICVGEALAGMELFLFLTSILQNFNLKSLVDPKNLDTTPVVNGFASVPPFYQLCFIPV
Protocol: as §1

CYP1A2 = CYP1A2 (Homo sapiens (Human), UniProt P05177); assay: CYP enzyme inhibition in pooled human liver microsomes (phenacetin); format: in vitro ADME
Sequence of CYP1A2 (P05177 whole entry): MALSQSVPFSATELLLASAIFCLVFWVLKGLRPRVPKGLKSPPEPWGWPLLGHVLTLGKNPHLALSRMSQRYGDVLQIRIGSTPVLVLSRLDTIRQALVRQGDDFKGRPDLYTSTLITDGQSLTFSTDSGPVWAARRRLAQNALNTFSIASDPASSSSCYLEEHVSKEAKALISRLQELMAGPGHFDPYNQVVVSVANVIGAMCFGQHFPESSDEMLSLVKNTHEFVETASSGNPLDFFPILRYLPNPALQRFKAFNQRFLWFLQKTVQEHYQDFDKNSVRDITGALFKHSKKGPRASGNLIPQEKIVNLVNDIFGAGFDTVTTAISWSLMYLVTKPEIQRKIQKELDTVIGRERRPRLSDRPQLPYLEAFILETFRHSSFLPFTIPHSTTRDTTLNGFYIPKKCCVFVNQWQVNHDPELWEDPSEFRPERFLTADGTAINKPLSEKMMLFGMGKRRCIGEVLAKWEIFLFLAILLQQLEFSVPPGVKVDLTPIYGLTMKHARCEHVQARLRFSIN
Protocol: as §1

[1] = target: USP1 (Recombinant Human His6-USP1/His6-UAF1 Complex Protein) (Homo sapiens (Human), UniProt O94782); assay: In vitro activity assay for USP1 (Ub-CHOP2-Reporter deubiquitination assay); format: biochemical; settings: 0.5 h incubation at room temperature, read-out: In vitro inhibitory activity of USP1 IC50
Sequence of USP1 (Recombinant Human His6-USP1/His6-UAF1 Complex Protein) (O94782 whole entry): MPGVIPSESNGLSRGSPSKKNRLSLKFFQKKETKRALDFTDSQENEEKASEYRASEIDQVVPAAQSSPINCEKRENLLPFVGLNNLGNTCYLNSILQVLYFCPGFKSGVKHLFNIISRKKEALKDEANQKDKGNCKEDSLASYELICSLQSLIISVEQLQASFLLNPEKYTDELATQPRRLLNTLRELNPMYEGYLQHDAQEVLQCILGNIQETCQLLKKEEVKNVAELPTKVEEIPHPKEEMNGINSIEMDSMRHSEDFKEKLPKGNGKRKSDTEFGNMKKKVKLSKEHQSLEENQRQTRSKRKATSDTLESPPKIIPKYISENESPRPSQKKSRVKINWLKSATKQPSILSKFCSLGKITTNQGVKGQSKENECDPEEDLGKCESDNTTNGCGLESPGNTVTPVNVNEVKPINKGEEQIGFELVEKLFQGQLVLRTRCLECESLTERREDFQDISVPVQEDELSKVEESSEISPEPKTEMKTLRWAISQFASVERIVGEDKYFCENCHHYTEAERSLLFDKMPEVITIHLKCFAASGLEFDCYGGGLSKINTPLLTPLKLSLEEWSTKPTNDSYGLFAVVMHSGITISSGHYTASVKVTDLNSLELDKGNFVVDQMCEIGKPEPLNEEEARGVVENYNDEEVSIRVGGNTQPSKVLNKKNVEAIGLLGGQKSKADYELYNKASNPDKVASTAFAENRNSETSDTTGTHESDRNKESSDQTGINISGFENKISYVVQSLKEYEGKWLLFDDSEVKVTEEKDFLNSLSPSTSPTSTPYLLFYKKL
Sequence of USP1 (Recombinant Human His6-USP1/His6-UAF1 Complex Protein) (Q8TAF3 whole entry partner): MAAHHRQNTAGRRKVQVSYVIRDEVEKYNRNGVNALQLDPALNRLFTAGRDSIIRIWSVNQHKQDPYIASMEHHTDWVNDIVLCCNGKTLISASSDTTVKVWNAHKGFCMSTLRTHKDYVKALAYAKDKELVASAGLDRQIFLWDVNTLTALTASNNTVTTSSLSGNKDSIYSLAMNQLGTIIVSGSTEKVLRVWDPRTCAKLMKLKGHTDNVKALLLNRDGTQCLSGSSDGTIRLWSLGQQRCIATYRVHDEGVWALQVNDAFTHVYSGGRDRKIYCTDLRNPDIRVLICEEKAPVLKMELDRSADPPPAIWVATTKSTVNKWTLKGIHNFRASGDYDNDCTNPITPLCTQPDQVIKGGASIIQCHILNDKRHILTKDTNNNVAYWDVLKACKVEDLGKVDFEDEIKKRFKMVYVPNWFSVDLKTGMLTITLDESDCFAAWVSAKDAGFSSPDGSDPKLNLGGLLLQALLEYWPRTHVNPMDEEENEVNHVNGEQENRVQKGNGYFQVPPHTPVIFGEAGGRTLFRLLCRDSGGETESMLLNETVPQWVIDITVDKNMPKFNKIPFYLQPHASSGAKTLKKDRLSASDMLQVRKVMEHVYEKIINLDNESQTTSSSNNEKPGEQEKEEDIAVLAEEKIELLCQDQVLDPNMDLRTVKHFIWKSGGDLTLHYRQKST
Outline: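 His6-USP1/His6-UAF1 complex was mixed with compound in 20 mM Tris-HCl pH 8.0, 2 mM CaCl2, 2 mM β-mercaptoethanol and 0.05% CHAPS. Ub-CHOP2 reporter system plus substrate was added, then incubated 0.5 h at room temperature. IC50 came from a four-parameter logistic fit.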

[2] = Metabolic stability in vitro in rat hepatocytes; format: in vitro ADME; settings: read-out: Intrinsic clearance
Protocol: The concentration of each compound in the reaction system was measured by LC/MS/MS to calculate the intrinsic clearance of the compounds to be tested, and evaluate the metabolic stability in vitro in rat hepatocytes.
To the incubation plate, 198 μL of 0.5×10^6 cells/mL rat hepatocyte mixture and 2.0 μL of 100 μM compound to be tested or positive control were added to initiate reaction. Incubation was performed at 900 rpm at 37° C. […] Then the mixture was vortex-mixed for 5 min. […] Then 100 μL of supernatant of each compound was transferred to a 96-well sample plate, and 100 μL of purified water was added to dilute the sample. The resulting samples were quantified by ion chromatograms. The residual rate was calculated from peak areas of the compounds to be tested or the positive control. The slope k was determined using Microsoft Excel by linear regression of natural logarithm of the residual rate to the incubation time. The intrinsic clearance (in vitro CLint, μL/min/10^6 cells) was calculated from the slope value according to the following equation: […]

[3] = Solubility (PBS pH 7.4) of compounds from DMSO solution; format: physicochemical; settings: aqueous buffer, kinetic from dmso stock, 10 mM DMSO solution into PBS pH 7.4, 25° C., read-out: Calculated solubility
Protocol: The solubility (PBS pH 7.4) of a compound to be tested was determined by LC/MS/MS. 6 μL of 10 mM DMSO solution of the compound to be tested was mixed with 194 μL of DMSO to prepare 300 μM compound solution. In 490 μL of water and acetonitrile (1:1) containing an internal standard, 5 μL of the solution and 5 μL of PBS pH 7.4 solution were mixed to prepare 3 μM standard concentration solution of the sample to be tested. The dilution factor of the standard solution can be adjusted according to the strength of response signals in LC/MS.
To 485 μL of PBS pH 7.4 solution, 15 μL of 10 mM DMSO solution of the compound to be tested was added. […] After shaking, the stir bar was removed, and the sample was transferred to a filter plate and filtered using a vacuum manifold. In 490 μL of water and acetonitrile (1:1) containing an internal standard, 5 μL of filtrate and 5 μL of PBS pH 7.4 solution were mixed to prepare a solution to be tested. The dilution factor can be adjusted according to the solubility value and the strength of response signals in LC/MS.
The resulting samples were determined by LC/MS/MS. The sample solubility was calculated from peak areas of the solution of the compound to be tested and the standard concentration solution, according to the following equation:
[formula] • [Sample] is the solubility of the sample to be tested; • Area ratiosample is the ratio of the peak area of sample in the sample to be tested to the peak area of the internal standard; • INJ VOL STD is the injection volume of the standard concentration solution; • DFsample is the dilution factor of the solution of the sample to be tested; • [STD] is the concentration of the standard concentration solution; • INJ VOLsample is the injection volume of the solution of the sample to be tested; and • Area ratio STD is the ratio of the peak area of sample in the standard concentration solution to the peak area of the internal standard.

[4] = Caco-2 permeability assay; format: in vitro ADME; settings: human, pH 7.4
Protocol: The apparent permeability coefficient (Papp) of the analytical drug was determined by liquid chromatography-mass spectrometry (LC-MS/MS) through a Caco-2 cell model.
In this test example, Caco-2 cells were purchased from American Type Culture Collection (ATCC); 4-hydroxyethyl piperazine ethane sulfonic acid (HEPES) was purchased from Beijing Solarbio Science & Technology Co., Ltd.; Hanks' balanced salt solution (HBSS) and non-essential amino acids (NEAA) were purchased from ThermoFisher Scientific; penicillin, streptomycin, and trypsin/EDTA were purchased from Solarbio; fetal bovine serum (FBS) and DMEM medium were purchased from Corning; HTS-96-well Transwell plates and other sterile consumables were purchased from Corning; Millicell resistance measuring system was purchased from Millipore; Cellometer®K2 was purchased from Nexcelom Bioscience; Infinite 200 PRO microplate reader was purchased from Tecan; and MTS2/4 orbital shaker was purchased from IKA Labortechnik.
Caco-2 cells were cultured in a culture flask. […] Cells at a confluency of 70-90% can be used to inoculate the Transwell. Prior to cell inoculation, 50 μL of cell culture medium was added to each well of the upper Transwell chamber and 25 mL of cell culture medium was added to the lower plate. The plate was incubated in an incubator (37° C., 5% CO2) for 1 h, and then inoculated with cells. After cell digestion, the cell suspension was pipetted and transferred to a round bottom centrifuge tube for centrifugation at 120 g for 5 min. […] The medium was changed as follows: transwell chambers were separated from the receiver plate, medium in the receiver plate was discarded, then medium in the Transwell chambers was discarded, and finally, 75 μL of fresh medium was added to each chamber, and 25 mL of fresh medium was added to the receiver plate.
After approximately 14 days of culture, the Caco-2 cells reached the confluency and completed differentiation. In this case, the cells can be applied to permeability assay. The monolayer resistance was measured with a resistance meter (Millipore, USA) and the resistance per well was recorded. After the measurement, the Transwell plate was put back to the incubator. Calculation of resistance: measured resistance value (ohms)×membrane area (cm^2)=TEER value (ohm·cm^2); if TEER value <230 ohms·cm^2, the well can not be used for permeability assay.
In 900 mL of purified water, 2.38 g HEPES and 0.35 g sodium bicarbonate were dissolved, then 100 mL of 10×HBSS was added and stirred well, pH was adjusted to 7.4, and finally, the resulting solution was filtered to obtain 1 L of transport buffer (HBSS, 10 mM HEPES, pH 7.4).
A DMSO stock solution of 1 mM of compound to be tested was diluted with the transport buffer to obtain 5 μM test solution. The control compound digoxin or minoxidil was diluted with DMSO to 2 mM, and diluted with the transport buffer described above to 10 μM to obtain a control compound test solution. In addition, DMSO was also diluted with the transport buffer described above to a receiving end solution containing 0.5% DMSO.
The Transwell plate was removed from the incubator. Monolayer cell membranes were rinsed twice with the transport buffer (10 mM HEPES, pH 7.4) and incubated at 37° C. for 30 min.
The transport rate of the compound from the apical side to the basolateral side was determined. […]
The transport rate of the compound from the basolateral side to the apical side was determined.

CYP2D6 = CYP2D6 (Homo sapiens (Human), UniProt P10635); assay: CYP enzyme inhibition in pooled human liver microsomes (bufuralol hydrochloride); format: in vitro ADME
Sequence of CYP2D6 (P10635 whole entry): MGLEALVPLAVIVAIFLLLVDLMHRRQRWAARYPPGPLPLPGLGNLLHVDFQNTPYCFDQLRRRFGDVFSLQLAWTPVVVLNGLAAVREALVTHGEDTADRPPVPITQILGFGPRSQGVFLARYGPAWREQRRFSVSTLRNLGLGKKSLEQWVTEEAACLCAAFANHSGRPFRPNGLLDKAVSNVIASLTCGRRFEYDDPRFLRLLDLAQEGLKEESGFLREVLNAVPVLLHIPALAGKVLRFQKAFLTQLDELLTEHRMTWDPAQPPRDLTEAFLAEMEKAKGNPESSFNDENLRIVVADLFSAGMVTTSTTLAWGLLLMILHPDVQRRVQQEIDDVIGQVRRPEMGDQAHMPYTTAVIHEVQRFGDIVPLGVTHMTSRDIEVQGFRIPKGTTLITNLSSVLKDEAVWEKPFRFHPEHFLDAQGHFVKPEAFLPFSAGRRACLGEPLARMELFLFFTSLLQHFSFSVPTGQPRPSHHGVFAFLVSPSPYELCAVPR
Protocol: as §1

Sequence of CYP3A4 (P08684 whole entry): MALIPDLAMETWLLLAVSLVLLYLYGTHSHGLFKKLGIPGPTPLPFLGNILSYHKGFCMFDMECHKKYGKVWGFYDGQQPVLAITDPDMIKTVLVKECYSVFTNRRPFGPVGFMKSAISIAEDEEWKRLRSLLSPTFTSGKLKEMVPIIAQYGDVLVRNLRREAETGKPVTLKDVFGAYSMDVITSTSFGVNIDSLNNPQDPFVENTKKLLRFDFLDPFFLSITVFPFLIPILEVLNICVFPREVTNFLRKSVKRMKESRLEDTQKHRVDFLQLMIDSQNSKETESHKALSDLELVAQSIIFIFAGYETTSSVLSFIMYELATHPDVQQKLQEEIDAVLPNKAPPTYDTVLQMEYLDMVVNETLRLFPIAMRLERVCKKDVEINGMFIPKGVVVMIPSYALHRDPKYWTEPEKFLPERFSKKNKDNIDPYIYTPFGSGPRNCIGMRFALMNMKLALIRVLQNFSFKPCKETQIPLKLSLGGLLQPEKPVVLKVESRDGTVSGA

IC50 (CYP3A4): > 30 µM
IC50 (CYP2C9): 28.9 µM
IC50 (CYP1A2): > 30 µM
IC50 [1]: 0.0454 µM
hepatocyte CLint at 1 μM [2]: < 1 µL/min/1e6 cells
solubility at 2 h [3]: 214 µM (≈ 118 µg/mL)
Papp A→B at 2 h, 5 μM ([4]; Caco-2, 5 μM, 2 h, apical to basolateral): 4.9 ×10⁻⁶ cm/s
Papp B→A at 2 h, 5 μM ([4]; Caco-2, 5 μM, 2 h, basolateral to apical): 17.6 ×10⁻⁶ cm/s
efflux ratio at 2 h, 5 μM ([4]; Caco-2, Papp (B−A)/Papp (A−B)): 3.6
IC50 (CYP2D6): > 30 µM
Compound: COc1ncnc(C2CC2)c1-c1ncc2c(n1)N(Cc1ccc(-c3nc(C(F)(F)F)cn3C)cc1)CC(=O)N2C [Compound 11, 2-(4-cyclopropyl-6-methoxypyrimidin-5-yl)-5-methyl-8-(4-(1-methyl-4-(trifluoromethyl)-1H-imidazol-2-yl)benzyl)-7,8-dihydropteridin-6(5H)-one]
